In US8563588B2, “Imidazolone derivatives, method for the preparation thereof and biological applications” (Universite de Rennes 1, priority 2007, dated 2013):

Target: Rat recombinant DYRK1A (Rattus norvegicus, UniProt Q63470)
Experiment: Assaying of the kinase activity of DYRK1A (33P-ATP, myelin basic protein, P81 filter);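 note: GST fusion rat DYRK1A made in E. coli, scintillation counting of label bound to substrate, activity as percent of the inhibitor-free maximum after blank subtraction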
Assay type: biochemical
Conditions: 15 μM ATP, 30° C., 30 min; read-out: IC50 DYRK1A
Procedure: Rat recombinant DYRK1A was expressed in E. coli as a GST fusion protein. It was purified by affinity chromatography on beads of immobilized glutathione (elution with free glutathione). […] After incubation at 30° C. for 30 min, 25-μL aliquots of supernatant were spotted onto Whatman P81 phosphocellulose filters and the filters were washed five times in a solution of phosphoric acid (10 ml/L water). The radioactivity incorporated into the substrate, retained on the moist filters, was then counted in the presence of ACS scintillation fluid (Amersham). The control values were subtracted and the activities were expressed as % of the maximum value, i.e. the value obtained in the absence of inhibitors. The IC50 values were calculated from dose-response curves and are given in μM.

Row | SMILES | IC50
1 | COCCSC1=N/C(=C\c2ccc3c(c2)OCO3)C(=O)N1 [ST164] | 0.65 µM
2 | CCSC1=N/C(=C\c2ccc(O)c(OC)c2)C(=O)N1C [ST170] | > 10 µM
3 | O=C1NC(=S)N/C1=C\c1c[nH]c2ccccc12 [ST195] | > 10 µM
4 | CN1C(=O)C(=Cc2c[nH]c3ccccc23)NC1=S [ST197] | > 10 µM
5 | COc1cc(/C=C2\NC(=S)NC2=O)ccc1O [ST202] | > 10 µM
6 | N#CCSC1=N/C(=C\c2ccc3c(c2)OCO3)C(=O)N1 [ST209] | 0.17 µM
7 | CN1C(=O)/C(=C/c2ccc3c(c2)OCO3)N=C1SCC#N [ST211] | 0.47 µM
8 | CN1C(=O)/C(=C/c2ccc3c(c2)OCO3)NC1=S [ST223] | > 10 µM
9 | O=C1NC(=S)N/C1=C\c1ccc(O)c(O)c1 [ST227] | 66 µM
10 | COc1cc(/C=C2\NC(=S)NC2=O)cc(Br)c1O [ST229] | 65 µM
11 | CCSC1=N/C(=C\c2ccc(O)c(OC)c2)C(=O)N1 [ST240] | 2.6 µM
12 | O=C1NC(=S)N/C1=C\c1cc(Br)c2c(c1)OCO2 [ST279] | > 10 µM
13 | CCSC1=N/C(=C\c2cc(Br)c3c(c2)OCO3)C(=O)N1 [ST280] | > 10 µM
14 | CCSC1=N/C(=C\c2ccc(O)c(O)c2)C(=O)N1 [ST286] | > 10 µM
15 | COc1cc(/C=C2\N=C(N)NC2=O)ccc1O [ST325] | 0.17 µM
16 | NC1=N/C(=C\c2ccc(O)c(O)c2)C(=O)N1 [ST326] | > 10 µM
17 | CN1C(=O)/C(=C/c2cc(Br)c3c(c2)OCO3)NC1=S [ST341] | > 10 µM
18 | CCSC1=N/C(=C\c2cc(Br)c3c(c2)OCO3)C(=O)N1C [ST342] | > 10 µM
